# In patent US20220128542A1, “TREATMENT EFFICIENCY EVALUATION” (TX MEDIC AB, priority 2019, published 2022):
# Experiments:
# [1] = system: Human Schwann cells; assay: Gene expression array and pathway/upstream regulator analysis in Schwann cells (Example 2); assay type: cell-based; conditions: 0.01 mg/ml
# Protocol: (§1) For each cell line, n=8×25 cm^2 culture flasks were set up. Two flasks were harvested for each cell type on the day of treatment (24 hours after seeding). This represents the Day0 time point. From the remaining flasks, three flasks were treated with Control Medium and three were treated with Culture Medium (CM) containing LMW-DS to give a final concentration of 0.01 mg/ml. Cells from the treated flasks were collected after 48 hours. Therefore the collected data represent (a) untreated cells (Day0 Controls and Day2 Controls) and (b) cells treated with LMW-DS for 48 hours (Day2 LMW-DS treated).
# (§2) 25 cm^2 flasks were coated by adding 2 ml per flask of a solution of 50 μg/ml poly-d-lysine in Hank's balanced salt solution (HBSS) and incubating overnight at 37° C. in the dark. Flasks were washed with cell culture water and air-dried for 30 min in the dark. Flasks were coated by adding 1 ml per flask of a solution of 25 μg/ml laminin in phosphate-buffered saline (PBS) and incubating for 2 hour at 37° C. in the dark. The laminin flasks were washed with PBS three times before plating cells.
# Schwann cells growth medium was prepared by adding 10% of fetal bovine serum (FBS) to high-glucose DMEM and pre-warmed to 37° C. Cells were thawed in a 37° C. water bath for no longer than 2 min.
# Cells from 12 vials were each gently transferred to a tube containing 10 ml of high-glucose DMEM medium and centrifuged at 400 relative centrifugal field (RCF) for 10 min. Pellet was re-suspended in culture medium. The cells from the 12 vials were mixed and distributed equally into the previously coated 25 cm^2 flasks (n=8). Cells were incubated at 37° C. with 5% CO2. Cells were allowed to settle for 24 hours before LMW-DS treatment.
# (§3) A fresh 100× LMW-DS stock (1.0 mg/ml) was prepared in sterile DMEM-F12. The concentrated drug stock was sterile filtered and added to the respective culture media (19.6 ml CM and 0.4 ml LMW-DS stock solution). The Control was made using 19.6 ml CM and 0.4 ml of DMEM-F12. LMW-DS and CM were added to the respective flasks (5 ml each) to reach the 0.01 mg/ml concentration of LMW-DS in each dish with a total of 10 ml CM each.
# (§4) CM was aspirated into a clean and labelled 15 ml Falcon tube. The flasks (without culture medium) were placed into the −80° C. freezer for 30 minutes. The CM in the Falcon tubes was spun at 3000×g for 5 minutes. Supernatant was removed and the small pellet was re-suspended in 2.5 ml Trizol:Water (4:1) solution at room temperature (RT, ˜22° C.).
# (§5) The frozen flasks were removed one-by one from the freezer and the Trizol-Water from the appropriate tubes was moved to the flask. Flasks were left at RT for 5 minutes before the content was aspirated back into the 15 ml Falcon tube (after washing the bottom of the flask with the solution thoroughly). The flasks were inspected under the microscope to ensure full removal of cells. The collected lysates in the 15 ml Falcon tubes were placed into the −80° C. freezer.
# (§6) Falcon tubes containing the homogenates were removed from the freezer and stored for 5 minutes at RT to permit the complete dissociation of nucleoprotein complexes.
# (§7) Two aliquots of 1 ml lysate were removed from each sample and 200 μl of chloroform was added to each (0.2 ml of chloroform per 1 ml of TRIzol Reagent used during the cell lysis step) and the tube was shaken vigorously. Samples were stored at RT for 2-3 minutes and subsequently centrifuged at 12,000×g for 15 minutes at 4° C.
# (§8) The mixture separated into three layers: a lower red phenol-chloroform phase, an interphase and a colorless upper aqueous phase. The RNA remained in the top aqueous phase, DNA in the white middle (interphase) phase and protein in the pink bottom (organic) phase. The top ¾ of the aqueous phase was transferred to a new clean Eppendorf tube.
# (§9) The RNA was precipitated from the aqueous phase by adding an equal amount of 100% ethanol. The precipitated RNA was fixed onto a Spin Cartridge, washed twice and dried. […]
# [2] = system: Mouse motor neurons; assay: Gene expression array and pathway/upstream regulator analysis in motor neurons (Example 2); assay type: cell-based; conditions: 0.01 mg/ml
# Protocol: as §1, §2
# The culture medium was prepared according to Table 5.
# Medium (see Table 5) was pre-warmed to 37° C. Cells were thawed in a 37° C. water bath for no longer than 2 min. 9 ml of media was gently added drop-wise. The cell suspension was mixed by inverting the tube carefully twice. The cells were counted with a Cellometer. The cells were centrifuged for 5 minutes at 200×g. Supernatant was removed (to the last 0.5 ml) and cells were gently re-suspended by trituration. The cells from the 8 vials were mixed and distributed equally into the previously coated 25 cm^2 flasks (n=8). Cells were incubated at 37° C. with 5% CO2 for 24 hours before treatment.
# as §3, §4, §5, §6, §7, §8, §9
# [3] = D0 control vs D2 LMW-DS treated
substance,measurement,setting,value
sodium salt of dextran sulfate [LMW-DS],number of genes: no effect / abolished nutrient effect,[1]; 48 hours,21
same,number of genes: no effect / total,[1]; 48 hours,21
same,number of genes: significant downregulation / abolished nutrient effect,[1]; 48 hours,1
same,number of genes: significant downregulation / enhanced response to nutrients,[1]; 48 hours,122
same,number of genes: significant downregulation / new effect induced by LMW-DS,[1]; 48 hours,352
same,number of genes: significant downregulation / not different from control,[1]; 48 hours,42
same,number of genes: significant downregulation / total,[1]; 48 hours,517
same,number of genes: significant upregulation / abolished nutrient effect,[1]; 48 hours,13
same,number of genes: significant upregulation / enhanced response to nutrients,[1]; 48 hours,441
same,number of genes: significant upregulation / new effect induced by LMW-DS,[1]; 48 hours,74
same,number of genes: significant upregulation / not different from control,[1]; 48 hours,373
same,number of genes: significant upregulation / total,[1]; 48 hours,901
same,number of genes: total / abolished nutrient effect,[1]; 48 hours,35
same,number of genes: total / enhanced response to nutrients,[1]; 48 hours,563
same,number of genes: total / new effect induced by LMW-DS,[1]; 48 hours,426
same,number of genes: total / not different from control,[1]; 48 hours,415
same,number of genes: total / total,[1]; 48 hours,1439
same,differentially expressed genes,[1]; [3],1244 genes
same,differentially expressed genes,[1]; D2 control vs D2 LMW-DS treated,700 genes
same,number of genes: no effect / abolished nutrient effect,[2]; 48 hours,177
same,number of genes: no effect / new effect induced by LMW-DS,[2]; 48 hours,108
same,number of genes: no effect / total,[2]; 48 hours,285
same,number of genes: significant downregulation / abolished nutrient effect,[2]; 48 hours,47
same,number of genes: significant downregulation / enhanced response to nutrients,[2]; 48 hours,36
same,number of genes: significant downregulation / new effect induced by LMW-DS,[2]; 48 hours,375
same,number of genes: significant downregulation / not different from control,[2]; 48 hours,104
same,number of genes: significant downregulation / total,[2]; 48 hours,562
same,number of genes: significant upregulation / abolished nutrient effect,[2]; 48 hours,40
same,number of genes: significant upregulation / enhanced response to nutrients,[2]; 48 hours,103
same,number of genes: significant upregulation / new effect induced by LMW-DS,[2]; 48 hours,71
same,number of genes: significant upregulation / not different from control,[2]; 48 hours,75
same,number of genes: significant upregulation / total,[2]; 48 hours,289
same,number of genes: total / abolished nutrient effect,[2]; 48 hours,264
same,number of genes: total / enhanced response to nutrients,[2]; 48 hours,139
same,number of genes: total / new effect induced by LMW-DS,[2]; 48 hours,554
same,number of genes: total / not different from control,[2]; 48 hours,179
same,number of genes: total / total,[2]; 48 hours,1136
same,differentially expressed genes,[2]; [3],315 genes
same,differentially expressed genes,[2]; second comparison,425 genes
